Data as given in patent US20080171697A1, “Peptides Having For Example Antiangiogenic Activity and Applications Thereof In Therapeutics” (priority 2003, published 2008).
Positions of bridges follow the written chain, without caps; N, C: chain ends. No end group written: not given here.

How the values were obtained:
[1] = tested on: HUVECs; assay: Study of the peptide entry process in HUVECs; format: cell-based, human; conditions: for entry of the peptide into HUVECs: cotreatment with dextran beads for 5 h
Excerpt: No entry of the FITC-CycRAD peptide into HUVECs, nor entry of the FITC-CycRGD peptide into HeLas is observed.

[2] = tested on: HUVECs; assay: Intracellular routing of TEAM-VP (confocal microscope); format: cell-based, human; conditions: for codistribution with the lysosomes (anti-Lamp2-FITC): Streptavidin-Texas Red; for codistribution with the mitochondria (anti-VDAC): Streptavidin-FITC
Protocol: HUVECs treated with TEAM-VP for 8, 24 and 32 h are observed using a confocal microscope.

[3] = tested on: HUVEC cells; assay: Drop in mitochondrial membrane potential in cellula (JC-1, microscope); format: cell-based, human; conditions: HUVEC cells treated for 16-24 h with 15 μM, JC-1 labeling
[4] = tested on: HUVEC cells; assay: Cytochrome c release in cellula (microscopy, anti-cytochrome c and anti-VDAC); format: cell-based, human; conditions: 24 h of treatment, 10 μM
[5] = molecular target: T1, αVβ3 integrins at the surface of endothelial cells (human, UniProt P06756 31-1048; P05106 27-788); assay: flow cytometry of FITC-labeled peptide on HUVEC cells (FIG. 2)
T1 construct: whole, on cells; Native integrin on HUVEC cells; the cells also carry other integrins (αVβ5 was stained as well); also called αVβ3 receptors
T1 sequence (P06756 31-1048, chain 1 of 2): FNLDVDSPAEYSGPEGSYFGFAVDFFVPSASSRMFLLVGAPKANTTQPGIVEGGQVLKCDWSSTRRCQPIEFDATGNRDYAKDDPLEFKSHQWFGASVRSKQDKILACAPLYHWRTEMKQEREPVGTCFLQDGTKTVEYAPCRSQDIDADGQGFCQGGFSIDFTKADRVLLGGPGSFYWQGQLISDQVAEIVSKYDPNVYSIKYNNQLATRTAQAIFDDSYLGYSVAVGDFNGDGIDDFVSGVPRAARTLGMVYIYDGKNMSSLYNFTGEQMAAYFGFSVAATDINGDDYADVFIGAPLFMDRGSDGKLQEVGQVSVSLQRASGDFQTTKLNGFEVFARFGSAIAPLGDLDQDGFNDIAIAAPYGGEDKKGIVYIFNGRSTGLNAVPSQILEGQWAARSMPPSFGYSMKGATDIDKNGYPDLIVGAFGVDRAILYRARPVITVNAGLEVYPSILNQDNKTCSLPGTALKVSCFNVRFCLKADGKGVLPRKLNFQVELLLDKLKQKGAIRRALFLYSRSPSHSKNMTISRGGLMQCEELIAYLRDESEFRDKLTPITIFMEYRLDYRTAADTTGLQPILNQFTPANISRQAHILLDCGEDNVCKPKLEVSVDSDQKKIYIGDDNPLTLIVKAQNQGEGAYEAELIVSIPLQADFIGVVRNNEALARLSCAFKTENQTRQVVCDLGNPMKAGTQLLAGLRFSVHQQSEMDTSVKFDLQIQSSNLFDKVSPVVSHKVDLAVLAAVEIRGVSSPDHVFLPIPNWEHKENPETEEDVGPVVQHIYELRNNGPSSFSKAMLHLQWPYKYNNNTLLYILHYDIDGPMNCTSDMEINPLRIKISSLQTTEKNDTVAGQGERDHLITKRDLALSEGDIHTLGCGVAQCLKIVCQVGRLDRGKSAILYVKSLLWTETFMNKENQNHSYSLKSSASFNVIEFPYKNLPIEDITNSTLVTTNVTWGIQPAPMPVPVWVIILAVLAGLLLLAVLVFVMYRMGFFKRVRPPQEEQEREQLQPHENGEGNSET
T1 sequence (P05106 27-788, chain 2 of 2): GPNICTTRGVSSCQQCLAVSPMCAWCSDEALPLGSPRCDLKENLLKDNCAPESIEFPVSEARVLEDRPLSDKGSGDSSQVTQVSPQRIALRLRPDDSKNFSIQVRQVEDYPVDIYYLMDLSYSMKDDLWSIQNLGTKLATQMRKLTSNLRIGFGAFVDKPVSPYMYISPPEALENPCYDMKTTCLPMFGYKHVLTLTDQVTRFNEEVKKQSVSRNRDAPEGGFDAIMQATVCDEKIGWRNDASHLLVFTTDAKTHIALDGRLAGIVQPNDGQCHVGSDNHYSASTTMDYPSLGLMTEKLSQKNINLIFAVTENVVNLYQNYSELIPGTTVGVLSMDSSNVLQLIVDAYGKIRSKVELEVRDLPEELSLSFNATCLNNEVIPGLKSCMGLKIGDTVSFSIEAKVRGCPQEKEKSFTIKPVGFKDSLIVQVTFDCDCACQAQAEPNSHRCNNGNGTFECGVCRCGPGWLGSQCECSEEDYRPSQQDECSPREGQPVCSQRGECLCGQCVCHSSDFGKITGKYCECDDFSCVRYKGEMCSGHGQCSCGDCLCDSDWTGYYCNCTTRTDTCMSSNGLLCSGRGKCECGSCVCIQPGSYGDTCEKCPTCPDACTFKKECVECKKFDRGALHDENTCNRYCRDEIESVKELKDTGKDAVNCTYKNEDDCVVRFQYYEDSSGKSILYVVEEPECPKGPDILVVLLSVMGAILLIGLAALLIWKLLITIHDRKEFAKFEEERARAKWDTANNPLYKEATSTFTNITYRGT
Protocol: The HUVEC cells were or were not preincubated for 30 min at ambient temperature with 200 μM of nonlabeled CycRGD peptide before the addition of FITC-CycRGD peptide (10 μM) for 45 min., and were analyzed by flow cytometry (FIG. 2b).

[6] = molecular target: T1, αVβ3 integrins at the surface of …; assay: peptide brought into contact with endothelial cells; endocytosis, confocal microscopy

GG*CRADMFG*CGG-amide (FITC, cyclised, GG/CGG flanks, amide) [FITC-CycRAD]
entry of the peptide into HUVECs [1]: No entry

GG*CRGDMFG*C-GG-LLFIHFRIGSRHSRIG-amide (GGCRGDMFGCGGLLFIHFRIGSRHSRIG-NH2; disulfide 3-10; N-terminus assumed; SMILES CC[C@H](C)[C@H](NC(=O)[C@H](CCCNC(=N)N)NC(=O)[C@H](CO)NC(=O)[C@H](Cc1c[nH]cn1)NC(=O)[C@H](CCCNC(=N)N)NC(=O)[C@H](CO)NC(=O)CNC(=O)[C@@H](NC(=O)[C@H](CCCNC(=N)N)NC(=O)[C@H](Cc1ccccc1)NC(=O)[C@H](Cc1c[nH]cn1)NC(=O)[C@@H](NC(=O)[C@H](Cc1ccccc1)NC(=O)[C@H](CC(C)C)NC(=O)[C@H](CC(C)C)NC(=O)CNC(=O)CNC(=O)[C@@H]1CSSC[C@H](NC(=O)CNC(=O)CN)C(=O)N[C@@H](CCCNC(=N)N)C(=O)NCC(=O)N[C@@H](CC(=O)O)C(=O)N[C@@H](CCSC)C(=O)N[C@@H](Cc2ccccc2)C(=O)NCC(=O)N1)[C@@H](C)CC)[C@@H](C)CC)C(=O)NCC(N)=O) [TEAM-VP]
entry of the peptide under sodium azide+deoxyglucose ([1]; HUVECs, treatment with sodium azide+deoxyglucose): inhibited by treatment with sodium azide+deoxyglucose
codistribution with the lysosomes (anti-Lamp2-FITC) ([2]; 8 h of treatment): codistributes with the lysosomes
codistribution with the mitochondria (anti-VDAC) ([2]; 24 h): partially codistributes
codistribution with the lysosomes (anti-Lamp2-FITC) ([2]; 24 h of treatment): would appear to leave these organelles
codistribution with the mitochondria (anti-VDAC) ([2]; 32 h): totally codistributes
codistribution with the Golgi apparatus (anti-Golgin) ([2]; throughout the treatment (8, 24 and 32 h)): No codistribution
drop in mitochondrial membrane potential in cellula [3]: Drop in potential observed
release of cytochrome c in cellula [4]: Release of cytochrome C observed

GG*CRGDMFG*CGG-amide (GGCRGDMFGCGG-NH2; disulfide 3-10; also: labeled with FITC in the binding assays) [FITC-CycRGD]
colocalization with dextran beads ([1]; HUVECs, cotreatment for 5 h): colocalize with dextran beads
entry of the peptide into HUVECs [1]: enter the HUVECs

B1: GG*CRGDMFG*CGG-amide (CycRGD) (peptide)
peptide: GGCRGDMFGCGG-NH2
modifications: disulfide 3-10; also: labeled with FITC in the binding assays
notes: Cyclised targeting part of TEAM-VP; also called FITC-CycRGD; CycRGD peptide
binding result [5]: binds

B2: TEAM-VP (SEQ ID No 2: GG*CRGDMFG*C-GG-[…]-amide) (peptide)
peptide: GGCRGDMFGCGGLLFIHFRIGSRHSRIG-NH2
modifications: disulfide 3-10; not fully specified; also: with or without biotin, FITC label also used
notes: also called chimeric peptide
binding result [6]: binds
